Laboratory results published in US9695155B2, “Herbicidal substituted pyrimidinyloxy benzene compounds” (E. I. DU PONT DE NEMOURS AND COMPANY, priority 2013, dated 2017).

Experiments:
chickweed = test: Test C postemergence; format: in vivo, Stellaria media; conditions: for Chickweed plant response rating: 16 g ai/ha, visual rating; for Chickweed plant response rating / Plant response rating (0 to 100), Chickweed: postemergence; for Chickweed plant response rating / Plant response rating, Chickweed: scale 0 to 100 (0 no effect, 100 complete control); for Plant response rating (0 to 100), Chickweed: 125 g ai/ha; for Plant response rating, Chickweed: Postemergence
Procedure, shortened: (§1)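 Greenhouse herbicide screen. Pre: seeded loam/sand, sprayed at planting. Post: 1–4 leaf plants (2–18 cm) in peat-based mix. Formulation: solvent mixture + surfactant, non-phytotoxic. Readout: visual % control vs untreated, 13–15 d; dash = not tested.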

oilseed rape = test: Test C postemergence; format: in vivo, Brassica napus; conditions: for Plant response rating (0 to 100), Oilseed Rape: 125 g ai/ha, postemergence; for Plant response rating, Oilseed Rape: Postemergence, scale 0 to 100 (0 no effect, 100 complete control)
Procedure, shortened: as §1

lambsquarters = test: Test C postemergence; format: in vivo, Chenopodium album; conditions: for Plant response rating (0 to 100), Lambsquarters: 125 g ai/ha, postemergence; for Plant response rating, Lambsquarters: Postemergence, scale 0 to 100 (0 no effect, 100 complete control)
Procedure, shortened: as §1

corn = test: Test A preemergence; format: in vivo, Zea mays; conditions: for Plant response rating, Corn: 125 g ai/ha, 0 to 100 scale where 0 is no effect and 100 is complete control; for Corn plant response rating: 500 g ai/ha, 0 to 100 scale, 0 no effect, 100 complete control, approx. 10 days
Procedure, shortened: (§2)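 Visual injury scored 0–100 (100 = complete control) against untreated controls about 10 days after treatment in a greenhouse. Test chemicals, formulated with surfactant in non-phytotoxic solvent, were sprayed on soil preemergence or on 2-10 cm, one- to two-leaf plants postemergence.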

giant foxtail [1] = test: Test A postemergence; format: in vivo, Setaria faberii; conditions: 0 to 100 scale where 0 is no effect and 100 is complete control
Procedure, shortened: as §2

waterhemp = test: Test C postemergence; format: in vivo, Amaranthus rudis; conditions: for Plant response rating (0 to 100), Waterhemp: 125 g ai/ha, postemergence; for Plant response rating, Waterhemp: Postemergence, scale 0 to 100 (0 no effect, 100 complete control)
Procedure, shortened: as §1

wheat = test: Test A preemergence; format: in vivo, Triticum aestivum; conditions: 125 g ai/ha, 0 to 100 scale where 0 is no effect and 100 is complete control
Procedure, shortened: as §2

soybean = test: Test C postemergence; format: in vivo, Glycine max; conditions: for Plant response rating (0 to 100), Soybean: 125 g ai/ha, postemergence; for Plant response rating, Soybean: Postemergence, scale 0 to 100 (0 no effect, 100 complete control)
Procedure, shortened: as §1

large (Lg) crabgrass = test: Test A postemergence; format: in vivo, Digitaria sanguinalis; conditions: 0 to 100 scale where 0 is no effect and 100 is complete control
Procedure, shortened: as §2

giant foxtail [2] = test: Test A preemergence; format: in vivo, Setaria faberii; conditions: for Plant response rating, Foxtail, Giant: 125 g ai/ha, 0 to 100 scale where 0 is no effect and 100 is complete control; for Foxtail, Giant plant response rating: 500 g ai/ha, 0 to 100 scale, 0 no effect, 100 complete control, approx. 10 days
Procedure, shortened: as §2

sedge, umbrella = test: Test B flooded paddy test; format: in vivo, Cyperus difformis; conditions: Flood, 250 g ai/ha; 0 to 100 scale where 0 is no effect and 100 is complete control
Procedure, shortened: (§3)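 Visual ratings on a 0 to 100 scale, where 100 means complete control, compared treated plants with controls after 13 to 15 days in a greenhouse. Treatment went into paddy water 3 cm deep over the soil, applied to plants at the 2-leaf stage.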

pigweed = test: Test A postemergence; format: in vivo, Amaranthus retroflexus; conditions: 0 to 100 scale where 0 is no effect and 100 is complete control
Procedure, shortened: as §2

galium = test: Test C postemergence; format: in vivo, Galium aparine; conditions: for Galium plant response rating: 16 g ai/ha, visual rating; for Galium plant response rating / Plant response rating (0 to 100), Galium: postemergence; for Galium plant response rating / Plant response rating, Galium: scale 0 to 100 (0 no effect, 100 complete control); for Plant response rating (0 to 100), Galium: 125 g ai/ha; for Plant response rating, Galium: Postemergence
Procedure, shortened: as §1

rice = test: Test B flooded paddy test; format: in vivo, Oryza sativa; conditions: Flood, 250 g ai/ha; 0 to 100 scale where 0 is no effect and 100 is complete control
Procedure, shortened: as §3

barnyardgrass = test: Test B flooded paddy test; format: in vivo, Echinochloa crus-galli; conditions: Flood, 250 g ai/ha; 0 to 100 scale where 0 is no effect and 100 is complete control
Procedure, shortened: as §3

Italian ryegrass = test: Test C postemergence; format: in vivo, Lolium multiflorum; conditions: for Plant response rating (0 to 100), Ryegrass, Italian: 125 g ai/ha, postemergence; for Plant response rating, Ryegrass, Italian: Postemergence, scale 0 to 100 (0 no effect, 100 complete control)
Procedure, shortened: as §1

SMILES	Chickweed plant response rating (chickweed; 13 to 15 days)	Plant response rating (0 to 100), Chickweed (chickweed)	Plant response rating, Chickweed (chickweed; 31 g ai/ha, 13 to 15 days)	Plant response rating, Chickweed (chickweed; 62 g ai/ha)	Plant response rating (0 to 100), Oilseed Rape (oilseed rape)	Plant response rating, Oilseed Rape (oilseed rape; 31 g ai/ha, 13 to 15 days)	Plant response rating, Oilseed Rape (oilseed rape; 62 g ai/ha)	Plant response rating (0 to 100), Lambsquarters (lambsquarters)	Plant response rating, Lambsquarters (lambsquarters; 31 g ai/ha, 13 to 15 days)	Plant response rating, Lambsquarters (lambsquarters; 62 g ai/ha)	Plant response rating, Corn (corn)	Corn plant response rating (corn)	Plant response rating, Foxtail, Giant (giant foxtail [1]; 125 g ai/ha)	Plant response rating, Foxtail, Giant (giant foxtail [1]; 500 g ai/ha)	Plant response rating (0 to 100), Waterhemp (waterhemp)	Plant response rating, Waterhemp (waterhemp; 31 g ai/ha, 13 to 15 days)	Plant response rating, Waterhemp (waterhemp; 62 g ai/ha)	Plant response rating, Wheat (wheat)	Plant response rating (0 to 100), Soybean (soybean)	Plant response rating, Soybean (soybean; 31 g ai/ha, 13 to 15 days)	further results
N#Cc1cccc(Oc2ncc(Cl)cn2)c1-n1cc(OC(F)F)cn1 [Compound 97]	70	90	60	80	80	60	80	98	75	80	40	60	90	90	95	85	90	0	95	60	Plant response rating, Soybean (soybean; 62 g ai/ha): 90; Plant response rating, Crabgrass, Large (large (Lg) crabgrass; 125 g ai/ha): 90; Plant response rating, Crabgrass, Large (large (Lg) crabgrass; 500 g ai/ha): 100; Plant response rating, Foxtail, Giant (giant foxtail [2]): 100; Foxtail, Giant plant response rating (giant foxtail [2]): 100; Plant response rating, Sedge, Umbrella (sedge, umbrella): 90; Plant response rating, Pigweed (pigweed; 125 g ai/ha): 100; Plant response rating, Pigweed (pigweed; 500 g ai/ha): 100; Galium plant response rating (galium; 13 to 15 days): 55; Plant response rating (0 to 100), Galium (galium): 90; Plant response rating, Galium (galium; 31 g ai/ha, 13 to 15 days): 75; Plant response rating, Galium (galium; 62 g ai/ha): 85; Plant response rating, Rice (rice): 0; Plant response rating, Barnyardgrass (barnyardgrass): 40; Plant response rating (0 to 100), Ryegrass, Italian (Italian ryegrass): 15; Plant response rating, Ryegrass, Italian (Italian ryegrass; 31 g ai/ha, 13 to 15 days): 5; Plant response rating, Ryegrass, Italian (Italian ryegrass; 62 g ai/ha): 5
FC(F)Oc1cnn(-c2ccccc2Oc2ncc(Cl)cn2)c1 [Compound 98]	30	85	50	75	98	80	95	98	35	80	0	10	80	90	85	50	80	0	90	40	Plant response rating, Soybean (soybean; 62 g ai/ha): 60; Plant response rating, Crabgrass, Large (large (Lg) crabgrass; 125 g ai/ha): 80; Plant response rating, Crabgrass, Large (large (Lg) crabgrass; 500 g ai/ha): 100; Plant response rating, Foxtail, Giant (giant foxtail [2]): 100; Foxtail, Giant plant response rating (giant foxtail [2]): 100; Plant response rating, Sedge, Umbrella (sedge, umbrella): 85; Plant response rating, Pigweed (pigweed; 500 g ai/ha): 100; Galium plant response rating (galium; 13 to 15 days): 50; Plant response rating (0 to 100), Galium (galium): 80; Plant response rating, Galium (galium; 31 g ai/ha, 13 to 15 days): 60; Plant response rating, Galium (galium; 62 g ai/ha): 75; Plant response rating, Rice (rice): 15; Plant response rating, Barnyardgrass (barnyardgrass): 35; Plant response rating (0 to 100), Ryegrass, Italian (Italian ryegrass): 25; Plant response rating, Ryegrass, Italian (Italian ryegrass; 31 g ai/ha, 13 to 15 days): 0; Plant response rating, Ryegrass, Italian (Italian ryegrass; 62 g ai/ha): 5
